{
  "source": "patent EP2764866A1",
  "about": "“Inhibitors of nedd8-activating enzyme” (IP Gesellschaft für Management mbH, priority 2013, dated 2014)",
  "key": {"[1]": {"conditions": "from COC(=O)[C@@H]1C[C@@H](Oc2nc3cc(OC)ccc3nc2C#CCCC[C@@H]2C[C@H]2OC(=O)N[C@H](C(=O)O)C(C)(C)C)CN1; amide bond; HATU; DMAc; 86.2 mM; 0.0 °C; 12.0 h"}, "human c-mpl-Ba/F3 cell": {"system": "human c-mpl-Ba/F3 cell", "experiment": "Mouse oral administration test (plasma activity in the c-mpl-Ba/F3 proliferation system)", "type": "in vivo, male ICR mice", "conditions": "for activity at 3 mg/kg: Mus musculus, po, 2 h; for Cell proliferation activity (%) 0.3%: 0.3% blood plasma concentration; for oral absorption: conclusion from the mouse oral administration test"}, "Human c-mpl-Ba/F3 cells": {"system": "Human c-mpl-Ba/F3 cells", "experiment": "Cell proliferation test for human c-mpl-Ba/F3 cells", "type": "cell-based", "experimental": "Test Example I Cell Proliferation Test for Human c-mpl-Ba/F3 Cells: Human c-mpl-Ba/F3 cells at a concentration of 2 x 10^5 cells/mL were cultured at 37 °C on a 96 well microplate using RPMI 1640 culture medium (100 microliter/well) containing 10% fetal calf serum to which various concentrations of the test compound was added. After 24 hours from the start of culturing, 10 microliter/well of WST-1/1-methoxy PMS (cell measuring kit, Dojin) was added. Immediately after the addition and two hours later, the A450/A650 absorbance was measured using a microplate reader (Model 3350, Bio-Rad), and the increase in absorbance after 2 hours was interpreted to represent the proliferation activity of each test compound. […] Furthermore, the maximum cell proliferation activity of compound X maleic acid salt C type crystals ({drug1b}) was 102%, based on the maximum cell proliferation activity of rhTPO being 100%. […] Therefore, compound X maleic acid salt C type crystals ({drug1b}) are useful for treating and preventing various types of thrombocytopenia by having a thrombocytosis effect. […]"}, "[2]": {"system": "Ba/F3 cells where c-mpl was not introduced", "experiment": "Cell proliferation test in Ba/F3 cells without c-mpl", "type": "cell-based"}, "[3]": {"experiment": "Pharmacokinetics of Compound [1] in Phase I and II studies", "conditions": "continuous daily dosing regimen, doses of 400 mg/day and above"}, "HCC78 cells": {"system": "HCC78 cells", "experiment": "cells", "conditions": "Homo sapiens, HCC78, read-out: IC50 for inhibition of HCC78 cell viability"}, "[4]": {"conditions": "dosed at 10mg/kg, compared to the free acid form"}, "[5]": {"conditions": "pH 1, compared to the free acid form"}, "[6]": {"experiment": "Hygroscopicity (water absorbed)", "type": "physicochemical"}, "pKa": {"experiment": "pKa", "type": "physicochemical", "text": "Suitable alkalizing agents include but are not limited to organic and inorganic basic compounds of a wide range of aqueous solubilities and molecular weights and mixtures thereof. Examples of inorganic basic salts include ammonium hydroxide, alkali metal salts, alkaline earth metal salts such as magnesium oxide, magnesium hydroxide, calcium hydroxide, sodium hydroxide, potassium hydroxide, aluminium hydroxide, potassium carbonate, sodium bicarbonate and the like and mixtures thereof. In particular, an alkalizing agent is selected from magnesium oxide, calcium carbonate, calcium phosphate and combinations thereof. More particularly, the alkalizing agent is magnesium oxide. […] Examples of precipitation inhibitors include but are not limited to polyvinyl pyrrolidone, for example those products known as PVP K30, PVP K29/32 and PVPP XL, and hydroxy propyl methyl cellulose (HPMC), for example those products known as […]® low viscous hypromellose-based water-soluble film coating agent. […] As used herein, the term \"oral dosage form\" refers to physically discrete units suitable as unitary dosages for humans and other mammals, each unit containing a predetermined quantity of a therapeutic agent in association with one or more pharmaceutically acceptable carrier. […]"}, "physchem": {"experiment": "physchem", "conditions": "pH 1.2, simulated gastric fluid"}, "[7]": {"conditions": "3 mg/kg orally, blood 2 hours after administration, maximum activity of each test compound = 100%"}},
  "note": "Counter-ions that a name gives are not always drawn. Like-named read-outs stand apart in the source and are kept apart here.",
  "data": [
    {"smiles": "COC(=O)[C@@H]1C[C@@H]2CN1C(=O)[C@H](C(C)(C)C)NC(=O)O[C@@H]1C[C@H]1CCCC#Cc1nc3ccc(OC)cc3nc1O2", "values": [
      {"measurement": "ring closure, yield of all isomers", "setting": "[1]", "value": 88.6, "unit": "%"}
    ]},
    {"smiles": "O=C(Nc1nc(-c2cc(Cl)cs2)c(N2CCN(C3CCCCC3)CC2)s1)c1cnc(N2CCC(C(=O)O)CC2)c(Cl)c1", "note": "[1-(3-chloro-5-{[4-(4-chlorothiophen-2-yl)-5-(4-cyclohexylpiperazin-1-yl)thiazol-2-yl]carbamoyl}pyridin-2-yl) piperidine-4-carboxylic acid maleic acid salt, reference compound]", "values": [
      {"measurement": "activity at 3 mg/kg", "setting": "human c-mpl-Ba/F3 cell; 3 mg/kg orally, blood 2 hours after administration, 10% blood plasma concentration, maximum activity of each test compound = 100%, read-out: Cell proliferation activity (%) 10%", "value": "> 80", "unit": "%"}
    ]},
    {"smiles": "O=C(Nc1nc(-c2cc(Cl)cs2)c(N2CCN(C3CCCCC3)CC2)s1)c1cnc(N2CCC(C(=O)O)CC2)c(Cl)c1", "note": "[1-(3-chloro-5-{[4-(4-chlorothiophen-2-yl)-5-(4-cyclohexylpiperazin-1-yl)thiazol-2-yl]carbamoyl}pyridin-2-yl) piperidine-4-carboxylic acid maleic acid salt]", "values": [
      {"measurement": "EC50", "setting": "Human c-mpl-Ba/F3 cells; Homo sapiens, 24 hours culture, WST-1/1-methoxy PMS readout, read-out: cell proliferation effect, EC50", "value": 2, "unit": "nM"},
      {"measurement": "activity at 3 mg/kg", "setting": "human c-mpl-Ba/F3 cell; 3 mg/kg orally, blood 2 hours after administration, 0.1% blood plasma concentration, maximum activity of each test compound = 100%, read-out: Cell proliferation activity (%) 0.1%", "value": 30, "unit": "%"}
    ]},
    {"smiles": "O=C(Nc1nc(-c2cc(Cl)cs2)c(N2CCN(C3CCCCC3)CC2)s1)c1cnc(N2CCC(C(=O)O)CC2)c(Cl)c1", "note": "[Compound X hydrochloride, reference compound]", "values": [
      {"measurement": "Cell proliferation activity (%) 0.3%", "setting": "human c-mpl-Ba/F3 cell; [7]", "value": "< 10", "unit": "%"},
      {"measurement": "Cell proliferation activity (%) 10%", "setting": "human c-mpl-Ba/F3 cell; 3 mg/kg orally, blood 2 hours after administration, 10% blood plasma concentration, maximum activity of each test compound = 100%", "value": 34, "unit": "%"}
    ]},
    {"smiles": "O=C(Nc1nc(-c2cc(Cl)cs2)c(N2CCN(C3CCCCC3)CC2)s1)c1cnc(N2CCC(C(=O)O)CC2)c(Cl)c1.O=C(O)/C=C\\C(=O)O", "note": "[Compound X maleic acid salt A type crystal] [1-(3-chloro-5-{[4-(4-chlorothiophen-2-yl)-5-(4-cyclohexylpiperazin-1-yl)thiazol-2-yl]carbamoyl}pyridin-2-yl) piperidine-4-carboxylic acid maleic acid salt, reference compound]", "values": [
      {"measurement": "Cell proliferation activity (%) 0.3%", "setting": "human c-mpl-Ba/F3 cell; [7]", "value": 55, "unit": "%"},
      {"measurement": "oral absorption", "setting": "human c-mpl-Ba/F3 cell; listed as compound X maleic acid salt A type crystals", "value": "excellent oral absorption"}
    ]},
    {"smiles": "O=C(Nc1nc(-c2cc(Cl)cs2)c(N2CCN(C3CCCCC3)CC2)s1)c1cnc(N2CCC(C(=O)O)CC2)c(Cl)c1.O=C(O)/C=C\\C(=O)O", "note": "[Compound X maleic acid salt B type crystal] [1-(3-chloro-5-{[4-(4-chlorothiophen-2-yl)-5-(4-cyclohexylpiperazin-1-yl)thiazol-2-yl]carbamoyl}pyridin-2-yl) piperidine-4-carboxylic acid maleic acid salt]", "values": [
      {"measurement": "Cell proliferation activity (%) 0.3%", "setting": "human c-mpl-Ba/F3 cell; [7]", "value": "< 10", "unit": "%"},
      {"measurement": "oral absorption", "setting": "human c-mpl-Ba/F3 cell; listed as compound X maleic acid B type crystals", "value": "inferior oral absorption"}
    ]},
    {"smiles": "O=C(Nc1nc(-c2cc(Cl)cs2)c(N2CCN(C3CCCCC3)CC2)s1)c1cnc(N2CCC(C(=O)O)CC2)c(Cl)c1.O=C(O)/C=C\\C(=O)O", "note": "[Compound X maleic acid salt C type crystal] [1-(3-chloro-5-{[4-(4-chlorothiophen-2-yl)-5-(4-cyclohexylpiperazin-1-yl)thiazol-2-yl]carbamoyl}pyridin-2-yl) piperidine-4-carboxylic acid maleic acid salt]", "values": [
      {"measurement": "maximum cell proliferation activity", "setting": "Human c-mpl-Ba/F3 cells; based on the maximum cell proliferation activity of rhTPO being 100%", "value": 102, "unit": "%"},
      {"measurement": "Cell proliferation activity (%) 0.3%", "setting": "human c-mpl-Ba/F3 cell; [7]", "value": "> 80", "unit": "%"},
      {"measurement": "oral absorption", "setting": "human c-mpl-Ba/F3 cell", "value": "excellent oral absorption"},
      {"measurement": "cell proliferation effect", "setting": "[2]", "value": "not observed"}
    ]},
    {"smiles": "CN1CCN(c2ccc3nc(-c4c(N)c5c(F)cccc5[nH]c4=O)[nH]c3c2)CC1", "note": "[Compound [1]]", "values": [
      {"measurement": "exposure", "setting": "[3]", "value": "prolonged over-proportional exposure"}
    ]},
    {"smiles": "C[C@@H](Oc1cc(-c2cnn(C3CCNCC3)c2)cnc1N)c1c(Cl)ccc(F)c1Cl", "note": "[Crizotinib, 3-[(R)-1-(2,6-dichloro-3-fluoro-phenyl)-ethoxy]-5-(1-piperidin-4-yl-1-H -pyrazol-4-yl)-pyridin-2-ylamine]", "values": [
      {"measurement": "IC50", "setting": "HCC78 cells", "value": "~59", "unit": "nM"}
    ]},
    {"smiles": "CCC(CC)Nc1c(Nc2ccc(Cl)c(S(=O)(=O)N(C)OC)c2O)c(=O)c1=O", "note": "[choline salt, 6-chloro-3-[2-(1-ethyl-propylamino)-3,4-dioxo-cyclobut-1-enylamino]-2-hydroxy-N-methoxy-N-methyl-benzenesulfonamide choline]", "values": [
      {"measurement": "oral exposure", "setting": "[4]", "value": "much improved"},
      {"measurement": "dissolution rate", "setting": "[5]", "value": "much improved"},
      {"measurement": "amount of water absorbed", "setting": "[6]; after 1 day at 80% humidity", "value": 0.7, "unit": "% by weight"},
      {"measurement": "amount of water absorbed", "setting": "[6]; after 1 day at 92% humidity", "value": 0.6, "unit": "% by weight"}
    ]},
    {"smiles": "CCC(CC)Nc1c(Nc2ccc(Cl)c(S(=O)(=O)N(C)OC)c2O)c(=O)c1=O", "note": "[free acid, 6-chloro-3-[2-(1-ethyl-propylamino)-3,4-dioxo-cyclobut-1-enylamino]-2-hydroxy-N-methoxy-N-methyl-benzenesulfonamide, reference compound]", "values": [
      {"measurement": "pKa", "setting": "pKa", "value": 5.4},
      {"measurement": "solubility", "setting": "physchem", "value": 1, "unit": "µg/mL"},
      {"measurement": "amount of water absorbed", "setting": "[6]; after 1 day at 80% humidity", "value": 2.4, "unit": "% by weight"},
      {"measurement": "amount of water absorbed", "setting": "[6]; after 1 day at 92% humidity", "value": 2.8, "unit": "% by weight"}
    ]}
  ]
}
